The values below come from PubChem BioAssay AID330 (DTP/NCI, 2004).

The test system of this test is P388 leukemia ip, CD2F1 mice, survival T/C. The test is described as follows: NCI In Vivo Anticancer Drug Screen. Data for tumor model P388 Leukemia (intraperitoneal) in CD2F1 (CDF1) mice. The following applies: endpoint: median survival time, higher = longer survival. In a few lines:
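Mice carrying the transplanted tumor received test compound or vehicle. Survival was recorded in each group, and the value is the treated-group measurement divided by that of the vehicle-treated control group.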

Where [1] appears, read: dose: 60.0 mg/kg/injection, schedule: Q01DX005 (ip), vehicle: saline.
Setting [2] is: dose: 120.0 mg/kg/injection, schedule: Q01DX005 (ip), vehicle: saline.
Setting [3] is: dose: 240.0 mg/kg/injection, schedule: Q01DX005 (ip), vehicle: saline.
The mark [4] stands for this setting: dose: 50.0 mg/kg/injection, schedule: Q01DX005 (ip), vehicle: Klucel (hydroxypropylcellulose) (HPC).
Where [5] appears, read: dose: 50.0 mg/kg/injection, schedule: Q01DX005 (ip), vehicle: saline with Tween-80.
Setting [6] is: dose: 200.0 mg/kg/injection, schedule: Q01DX005 (ip), vehicle: saline with Tween-80.
Setting [7] is: dose: 50.0 mg/kg/injection, schedule: Q01DX009 (ip), vehicle: saline with Tween-80.
Setting [8] is: dose: 100.0 mg/kg/injection, schedule: Q01DX009 (ip), vehicle: saline with Tween-80.
The mark [9] stands for this setting: dose: 200.0 mg/kg/injection, schedule: Q01DX009 (ip), vehicle: saline with Tween-80.
Setting [10] is: dose: 100.0 mg/kg/injection, schedule: Q04DX003 (ip), vehicle: saline with Tween-80.
Where [11] appears, read: dose: 200.0 mg/kg/injection, schedule: Q04DX003 (ip), vehicle: saline with Tween-80.
Where [12] appears, read: dose: 400.0 mg/kg/injection, schedule: Q04DX003 (ip), vehicle: saline with Tween-80.
[13] abbreviates: dose: 60.0 mg/kg/injection, schedule: Q01DX005 (ip), vehicle: saline with Tween-80.
Where [14] appears, read: dose: 120.0 mg/kg/injection, schedule: Q01DX005 (ip), vehicle: saline with Tween-80.

Several values for one entry are separate records, joined by “and”; a condition that tells them apart may be missing. Equal entries are not always repeated. Inconclusive results and toxic doses are left out.

For `O=C(CNOCc1ccccc1)OCc1ccccc1`, the T/C reads like this: (dose: 12.5 mg/kg/injection, schedule: Q01DX009 (ip), vehicle: other) 88 % of control; (dose: 25.0 mg/kg/injection, schedule: Q01DX009 (ip), vehicle: other) 96 % of control; (dose: 50.0 mg/kg/injection, schedule: Q01DX009 (ip), vehicle: other) 99 % of control; (dose: 100.0 mg/kg/injection, schedule: Q01DX009 (ip), vehicle: other) 97 % of control; (dose: 200.0 mg/kg/injection, schedule: Q01DX009 (ip), vehicle: other) 108 % of control.
For the molecule `CC(C)CC(NC(=O)CNC(=O)CN)C(=O)O` (stereo not given), the T/C under setting [1] was 102 % of control, the T/C under setting [2] was 99 % of control and the T/C under setting [3] was 106 % of control.
Take `Cc1cccc(C)c1-n1c(C)nc2[nH]cc(C)c2c1=N`: the T/C (dose: 12.5 mg/kg/injection, schedule: Q01DX005 (ip), vehicle: Klucel (hydroxypropylcellulose) (HPC)) was 99 % of control; the T/C (dose: 25.0 mg/kg/injection, schedule: Q01DX005 (ip), vehicle: Klucel (hydroxypropylcellulose) (HPC)) is 97 % of control; the T/C under setting [4] was 100 % of control and 97 % of control.
As to `COc1ccc2c(c1OC)OCC(CN(C)C)C2=O` (stereo not given), the T/C by setting is: (dose: 15.0 mg/kg/injection, schedule: Q01DX005 (ip), vehicle: saline) 100 % of control and 102 % of control; (dose: 30.0 mg/kg/injection, schedule: Q01DX005 (ip), vehicle: saline) 108 % of control and 111 % of control; under setting [1], 106 % of control and 110 % of control and 114 % of control; under setting [2], 114 % of control and 116 % of control.
Take `CSc1nc(COC(=O)NC(C)C)c(COC(=O)NC(C)C)n1C`: the T/C (dose: 12.5 mg/kg/injection, schedule: Q01DX005 (ip), vehicle: Klucel + Tween-80) is 113 % of control; the T/C (dose: 25.0 mg/kg/injection, schedule: Q01DX005 (ip), vehicle: Klucel + Tween-80) was 116 % of control; the T/C (dose: 100.0 mg/kg/injection, schedule: Q01DX005 (ip), vehicle: Klucel + Tween-80) is 156 % of control and 163 % of control; the T/C (dose: 200.0 mg/kg/injection, schedule: Q01DX005 (ip), vehicle: Klucel + Tween-80) is 184 % of control.
Take `COc1ccc(CCNC(=O)C(=O)c2c[nH]c3ccccc23)cc1OC`: the T/C is 90 % of control under setting [5]; 88 % of control (dose: 100.0 mg/kg/injection, schedule: Q01DX005 (ip), vehicle: saline with Tween-80); 89 % of control under setting [6].
With `Oc1ccccc1CNc1ncc(Cl)cc1Cl`, the T/C by setting is: under setting [7], 100 % of control; under setting [8], 88 % of control; under setting [9], 94 % of control.
For `CCCCC/C=C/C/C=C\CCCCCCCC(=O)NC(Cc1ccc(C)cc1)c1ccccc1` (stereo not given), the T/C under setting [7] was 98 % of control, the T/C under setting [8] was 100 % of control and the T/C under setting [9] was 100 % of control.
For `FC(F)(F)c1ccc(C2(c3ccccc3)C=C(c3ccccc3)SC(c3ccccc3)=C2)cc1`, the T/C (dose: 50.0 mg/kg/injection, schedule: Q01DX009 (ip), vehicle: Klucel (hydroxypropylcellulose) (HPC)) is 102 % of control; the T/C (dose: 100.0 mg/kg/injection, schedule: Q01DX009 (ip), vehicle: Klucel (hydroxypropylcellulose) (HPC)) is 94 % of control; the T/C (dose: 200.0 mg/kg/injection, schedule: Q01DX009 (ip), vehicle: Klucel (hydroxypropylcellulose) (HPC)) is 97 % of control.
For the molecule `O=C(/C=C/c1ccccc1)c1ccccc1O`, the T/C is 96 % of control under setting [7], 104 % of control under setting [8] and 101 % of control under setting [9].
Regarding `O=S(=O)(c1ccccc1)[C@H]1[C@@H]2O[C@@H]2C[C@@H]1O`, the T/C runs as follows: under setting [1], 104 % of control; under setting [2], 103 % of control; under setting [3], 98 % of control.
As for `O=S(=O)(OI(O)c1ccccc1)c1ccc(Cl)cc1`, the T/C by setting is: (dose: 12.5 mg/kg/injection, schedule: Q01DX009 (ip), vehicle: water) 101 % of control; (dose: 25.0 mg/kg/injection, schedule: Q01DX009 (ip), vehicle: water) 105 % of control; (dose: 50.0 mg/kg/injection, schedule: Q01DX009 (ip), vehicle: water) 109 % of control and 114 % of control.
`Cc1ccc(S(=O)(=O)NC(=O)NC(=S)c2cccs2)cc1`: the T/C by setting is: (dose: 50.0 mg/kg/injection, schedule: Q01DX001 (ip), vehicle: saline with Tween-80) 98 % of control; (dose: 100.0 mg/kg/injection, schedule: Q01DX001 (ip), vehicle: saline with Tween-80) 97 % of control; (dose: 200.0 mg/kg/injection, schedule: Q01DX001 (ip), vehicle: saline with Tween-80) 91 % of control.
For the molecule `COc1cc2c(cc1OC)C(CS(C)=O)Cc1cc(OC)c(OC)cc1N(C)CCC2` (stereo not given), the T/C runs as follows: under setting [10], 93 % of control; under setting [11], 87 % of control; under setting [12], 100 % of control.
As for `N=C1C=CC2C(=Nc3ccccc3[N+]2=O)N1Cc1ccncc1` (stereo not given), the T/C under setting [13] is 98 % of control; the T/C under setting [14] is 90 % of control; the T/C (dose: 240.0 mg/kg/injection, schedule: Q01DX005 (ip), vehicle: saline with Tween-80) is 98 % of control.
Turning to `CC(=O)Nc1c(Br)cc(Br)c2c1C(=O)c1ccccc1-2`, the T/C runs as follows: under setting [4], 91 % of control; (dose: 100.0 mg/kg/injection, schedule: Q01DX005 (ip), vehicle: Klucel (hydroxypropylcellulose) (HPC)) 91 % of control; (dose: 200.0 mg/kg/injection, schedule: Q01DX005 (ip), vehicle: Klucel (hydroxypropylcellulose) (HPC)) 97 % of control.
As for `COc1cc2c3cc1Oc1c(O)c(OC)cc4c1[C@H](Cc1ccc(cc1)Oc1cc(ccc1O)C[C@H]3N(C)CC2)N(C)CC4`, the T/C was 100 % of control (dose: 1.25 mg/kg/injection, schedule: Q01DX009 (ip), vehicle: water); 101 % of control (dose: 2.5 mg/kg/injection, schedule: Q01DX009 (ip), vehicle: water); 97 % of control (dose: 5.0 mg/kg/injection, schedule: Q01DX009 (ip), vehicle: water); 101 % of control (dose: 10.0 mg/kg/injection, schedule: Q01DX009 (ip), vehicle: water); 103 % of control (dose: 20.0 mg/kg/injection, schedule: Q01DX009 (ip), vehicle: other); 94 % of control (dose: 20.0 mg/kg/injection, schedule: Q01DX009 (ip), vehicle: water). In addition, the T/C runs as follows: (dose: 40.0 mg/kg/injection, schedule: Q01DX009 (ip), vehicle: other) 94 % of control; (dose: 80.0 mg/kg/injection, schedule: Q01DX009 (ip), vehicle: other) 109 % of control.
Regarding `COC(=O)C1(OC(=O)CCC(=O)O)C(=O)NC2=C1C(=O)c1ccccc1C2=O` (stereo not given), the T/C under setting [5] was 109 % of control and 119 % of control; the T/C under setting [6] was 111 % of control and 113 % of control.
Turning to `CC(=O)c1coc2c(c(C)nn2-c2ccccc2)c1=O`, the T/C is, setting by setting: (dose: 7.5 mg/kg/injection, schedule: Q01DX005 (ip), vehicle: Klucel (hydroxypropylcellulose) (HPC)) 99 % of control; (dose: 15.0 mg/kg/injection, schedule: Q01DX005 (ip), vehicle: Klucel (hydroxypropylcellulose) (HPC)) 100 % of control; (dose: 30.0 mg/kg/injection, schedule: Q01DX005 (ip), vehicle: Klucel (hydroxypropylcellulose) (HPC)) 100 % of control.
Regarding `CSC(=NNC(N)=O)SC`, the T/C reads like this: under setting [10], 100 % of control; under setting [11], 102 % of control; under setting [12], 102 % of control.
`CN(C)CC1=Nc2cccc3cccc(c23)N1`: the T/C reads like this: under setting [13], 102 % of control; under setting [14], 106 % of control.
